Source: patent publication US11981953B2, “Method to screen compounds for antifungal activity and pharmaceutical compositions and methods to treat fungal diseases by inhibiting spore germination” (WISCONSIN ALUMNI RESEARCH FOUNDATION, priority 2018, dated 2024)

Key:
[1] = system: Aspergillus Fumigatus (AF293); test: Aspergillus fumigatus MIC on conidia; assay type: cell-based; conditions: testing performed on conidia
Protocol: Conidia at a final concentration of 2×10^4 cells were incubated in RPMI, 0.33 M MOPS, and 2% glucose at pH 7 at varying concentrations of inhibitors, with a final volume of 200 μL.

[2] = system: Cryptococcus neoformans spores (JEC20 x JEC21); test: Quantitative germination assay (microfluidic devices, cell size and shape); assay type: cell-based
Protocol: All germination assays are based on Barkal et al., 2016. Briefly, microfluidic devices were loaded with 1×10^5 spores, and at 0 hours, SD media with drug of interest, were added to the sample. Spores were allowed to germinated at 30° C. in a humidified chamber and cells were monitored every two (2) hours for 16 hours. Each assay was performed in two (2) individual wells with three (3) field of views acquired from each well. All images were analyzed as previously described based on cell shape and size. Population ratio of spores, intermediate, and yeast cells were determined. Error bars in plots are based on variation between all fields of view acquired. […] After the 16-hour experiment, samples were plated on YPD and allowed to grow at 30° C. to determine if drugs were completely germicidal or not based on lack of growth. If assays were unable to be performed in microfluidic devices, the […] spores were incubated in identical conditions outside of PDMS devices and only loaded into devices for image acquisition.

[3] = system: JEC20×JEC21 yeast or spores in mouse lung; test: Fungal burden animal studies (mouse lung colony-forming units); assay type: in vivo, Cryptococcus neoformans; conditions: for Lung fungal burden (colony-forming units) versus PBS-treated mice: 4 mg/kg/day intranasal for three days from 1-day post-infection, lungs day 4
Protocol: All yeast cells were cultured overnight in YPD, washed and diluted to 5×10^6 cells. For JEC20 and JEC21, 2.5×10^6 cells of each were combined. Spores were cultured as previously described and diluted to 2×10^6 cells. All experiments were performed on 8- to 10-week old C57BL/6J (Jackson Laboratory, Bar Harbor, Me., USA) female mice (5 mice per group). All mice were infected intranasally with a total of 50 μL. All dosing was performed with 4 mg/kg/day or 1×PBS for three (3) days either prior to infection or 1-day post-infection. Mice were sacked day-4 post-infection and lungs were collected, processed, and fungal burden was assessed.
Pentamidine is a successful inhibitor of Cryptococcus neoformans yeast replication in vitro. For repurposing potential, it is important to determine drug efficacy in vivo. For this purpose, the ability of pentamidine to lower the fungal burden in mouse lungs infected by both spores and yeast was determined. One-day post-infection intranasal dosing was begun at 4 mg/kg/day and the mice were treated for three consecutive days. On the fourth day post-infection, lungs were collected and fungal burden was determined. […] See FIG. 8A and FIG. 8B, respectively.
Pentamidine is a successful inhibitor of spore germination in vitro. It is important, though, to determine drug efficacy in vivo. Therefore, the ability of pentamidine to inhibit germination of spores in mouse lungs was determined. […], mice were infected with JEC20×JEC21 spores and 4-days post infection, mouse lungs were collected and lung fungal burden was determined.

[4] = system: JEC20-GFPxJEC21-GFP spores in mouse lung; test: In vivo germination (cells recovered from mouse lungs 8 hours post infection); set-up: species or system Cryptococcus neoformans; conditions: prophylactic 4 mg/kg/day for three days; cells recovered 8 hours post infection
Protocol: Female mice, 8- to 10-week-old C57BL/6J (Jackson Laboratory) female mice (3 mice per group) were used. Mice were dosed with either 4mg/kg/day or 1×PBS (50 μL) for three (3) consecutive days. Mice were intranasally infected with 2×10^6 JEC20-GFPxJEC21-GFP spores, strains described in Walsh et al., 2018. After 8 hours post-infection, mice were sacked and lavaged with 0.05% TirtonX in 1×PBS. Lavage suspension underwent a series of treatments and washes, in order: red blood cell lysis (ACK lysing buffer, 2 mL, 5 minutes), formaldehyde fixation (4%, 500 μL, 30 minutes) and calcofluor white staining (25 μg/mL, 20 μL for 1 minute). Cells (50-100 per mouse) were imaged, and identified as Cryptococcus neoformans cells based on green fluorescent signal or cyan staining from calcofluor staining. Cells surface area and aspect ratio were measured in ImageJ and cells were classified as spores, intermediates, or yeast based on size and shapes parameters used in the quantitative germination assay.
In vivo spore germination has never been characterized mainly due to technical hurdles. Using a novel assay, Cryptococcus neoformans cells were recovered from prophylactically treated, spore-infected mouse lungs 8 hours post infection. […] Based on size and shape of the cells, the level of in vivo spore germination was quantified.

SMILES: N=C(N)c1ccc(OCCCCCOc2ccc(C(=N)N)cc2)cc1 [Pentamidine]
- Ability to inhibit Aspergillus fumigatus [1]: unable to inhibit
- Germicidal activity ([2]; 50 μg/mL): showed germicidal activity
- Spore germination over a range of concentrations ([2]; as concentrations increased): spore germination became slower
- Germicidal activity ([2]; lower concentration): not germicidal
- Spore escape from inhibition (words) ([2]; yeast population increase = escape, listed as pentamidine): no individual spores were able to escape inhibition
- Lung fungal burden after prophylaxis versus 1×PBS ([3]; 4 mg/kg/day for three consecutive days prior to infection with JEC20×JEC21 spores, lungs 4-days post infection, FIG. 9, p<0.01): successful in decreasing spore-mediated lung burden
- Lung fungal burden (colony-forming units) versus PBS-treated mice ([3]; spore-infected C57BL/6J mice, FIG. 8B, p<0.01): significantly lower fungal burdens in the lung
- Lung fungal burden (colony-forming units) versus PBS-treated mice ([3]; yeast-infected C57BL/6J mice, FIG. 8A, p<0.05): significantly lower fungal burdens in the lung
- Level of in vivo spore germination (spore, intermediate, yeast percent) [4]: higher spore percent and a lower yeast percent
